Laboratory results as given in patent US11965122B2, “Method for visually enhancing the experience of an audience during a performance” (PROLUME, LTD., priority 2012, dated 2024).

Key:
[1] = test system: calcium activated photoprotein (CAP); conditions: cited from earlier work; for RLC*: relative to native = 1.00; for Relative Intensity †: relative to native = 1
Rabbit conjunctiva = test: Coelenterazine applied directly in Rabbit conjunctiva; format: in vivo; conditions: multiple sets applied directly in Rabbit conjunctiva, even at high concentrations
From the text: Denuded and scratched corneal surfaces should release more calcium then a sealed intact healthy cornea and a CAP may be used alone or in conjunction with fluorescein dye to reveal the exact location of the foreign body or severity of the ocular corneal scratch.

[2] = Brightness of ultraviolet producing Coelenterazine analog
From the text: Diagnosis of conjunctiva pathology and corneal scratches and other acute ocular emergencies such as foreign objects is best performed using an ultraviolet lamp and fluorescein dye. However there are situations, such as camping, or in poorer nations where electricity and ultraviolet lamps are not available. Another embodiment of this invention is a kit containing fluorescein dye, and a CARP manufactured using a ultraviolet producing Coelenterazine analog such as 400a or better because it is much brighter, is methoxy-eCoelenterazine analog contained and stabilized within a freeze dried CARP which can be used for eye examinations in the field.

[3] = test system: Renilla muelleri Luciferase; test: Luminescent activity of Renilla muelleri Luciferase with Coelenterazine analogues; format: biochemical; conditions: integrated over 10 sec
From the text: FIG. 21 is luminescent activity of Renilla muelleri Luciferase with methoxy eCTZ and methoxy eCTZf.

| light-output relative to methoxy eCTZf [3] | Molecule | Half-Rise Time ‡ [1] | RLC* [1] | Relative Intensity † [1] | ocular injury (Rabbit conjunctiva) | duration of light emission ([1]; CAP manufactured with the analog, delayed spring-opening, over tens of minutes) | brightness compared with 400a [2] |
| --- | --- | --- | --- | --- | --- | --- | --- |
|  | Oc1ccc(Cc2nc3c(Cc4ccccc4)nc(-c4ccc(O)cc4)cn3c2O)cc1 [Coelenterazine] | 6 to 30 ms | 1.00 | 1 | failed to produce any ocular injury |  |  |
|  | O=c1c(Cc2ccc(O)cc2)nc2c(CC3CCCC3)[nH]c(-c3ccc(O)cc3)cn1-2 [cp] | 2 to 5 ms | 0.63 | 28 |  |  |  |
|  | O=c1c(Cc2ccc(F)cc2)nc2c(Cc3ccccc3)[nH]c(-c3ccc(O)cc3)cn1-2 [f] | 6 to 30 ms | 0.80 | 20 |  |  |  |
|  | O=c1c(Cc2ccccc2)nc2c(Cc3ccccc3)[nH]c(-c3ccc(O)cc3)cn1-2 [h] | 6 to 30 ms | 0.75 | 16 |  |  |  |
|  | O=c1c(Cc2ccccc2)nc2c(CC3CCCC3)[nH]c(-c3ccc(O)cc3)cn1-2 [hcp] | 2 to 5 ms | 0.65 | 500 |  |  |  |
|  | Coelenterazine-Iodide |  |  |  |  | prolongs light emission |  |
| approx. two-fold | Methoxy-e-Coelenterazine [Methoxy eCTZ] |  |  |  |  |  | much brighter |
